From the NIST ThermoML archive (doi:10.1016/j.jct.2010.08.021)
Numbers after ± are expanded uncertainties.

Assay: mn = molality of the nth substance listed, in mol/kg
Conditions: 101 kPa, Liquid; for speed of sound: Sing-around technique in a fixed-path interferometer; for mass density: Vibrating tube method

N[C@@H](CO)C(=O)O [L-serine] + O
Conditions | mass density [kg/m3] | speed of sound [m/s]
288.15 K, m1 = 0.0192 | 999.979 ± 0.12 | 1467.9 ± 1.3
288.15 K, m1 = 0.028 | 1000.38 ± 0.12 | 1468.5 ± 1.3
288.15 K, m1 = 0.037 | 1000.78 ± 0.12 | 1468.9 ± 1.3
288.15 K, m1 = 0.043 | 1001.05 ± 0.12 | 1469.4 ± 1.3
288.15 K, m1 = 0.0486 | 1001.3 ± 0.12 | 1469.8 ± 1.3
288.15 K, m1 = 0.057 | 1001.68 ± 0.12 | 1470.3 ± 1.3
288.15 K, m1 = 0.0657 | 1002.07 ± 0.12 | 1470.9 ± 1.3
288.15 K, m1 = 0.0804 | 1002.73 ± 0.12 | 1471.8 ± 1.3
288.15 K, m1 = 0.0942 | 1003.34 ± 0.12 | 1472.7 ± 1.3
288.15 K, m1 = 0.1156 | 1004.3 ± 0.12 | 1474.1 ± 1.3
288.15 K, m1 = 0.1329 | 1005.07 ± 0.12 | 1475.2 ± 1.3
288.15 K, m1 = 0.1535 | 1005.99 ± 0.12 | 1476.6 ± 1.3
288.15 K, m1 = 0.1642 | 1006.46 ± 0.12 | 1477.3 ± 1.3
288.15 K, m1 = 0.1789 | 1007.11 ± 0.12 | 1478.3 ± 1.3
288.15 K, m1 = 0.1944 | 1007.8 ± 0.12 | 1479.2 ± 1.3
293.15 K, m1 = 0.0192 | 999.07 ± 0.12 | 1484 ± 1.3
293.15 K, m1 = 0.028 | 999.466 ± 0.12 | 1484.5 ± 1.3
293.15 K, m1 = 0.037 | 999.867 ± 0.12 | 1485 ± 1.3
293.15 K, m1 = 0.043 | 1000.13 ± 0.12 | 1485.4 ± 1.3
293.15 K, m1 = 0.0486 | 1000.38 ± 0.12 | 1485.8 ± 1.3
293.15 K, m1 = 0.057 | 1000.75 ± 0.12 | 1486.3 ± 1.3
293.15 K, m1 = 0.0657 | 1001.14 ± 0.12 | 1486.8 ± 1.3
293.15 K, m1 = 0.0804 | 1001.79 ± 0.12 | 1487.8 ± 1.3
293.15 K, m1 = 0.0942 | 1002.4 ± 0.12 | 1488.7 ± 1.3
293.15 K, m1 = 0.1156 | 1003.35 ± 0.12 | 1490 ± 1.3
293.15 K, m1 = 0.1329 | 1004.11 ± 0.12 | 1491.1 ± 1.3
293.15 K, m1 = 0.1535 | 1005.02 ± 0.12 | 1492.4 ± 1.3
293.15 K, m1 = 0.1642 | 1005.49 ± 0.12 | 1493.1 ± 1.3
293.15 K, m1 = 0.1789 | 1006.13 ± 0.12 | 1494 ± 1.3
293.15 K, m1 = 0.1944 | 1006.81 ± 0.11 | 1495 ± 1.3
298.15 K, m1 = 0.0192 | 997.9 ± 0.12 | 1498.2 ± 1.2
298.15 K, m1 = 0.028 | 998.291 ± 0.12 | 1498.8 ± 1.2
298.15 K, m1 = 0.037 | 998.691 ± 0.12 | 1499.2 ± 1.2
298.15 K, m1 = 0.043 | 998.951 ± 0.12 | 1499.6 ± 1.2
298.15 K, m1 = 0.0486 | 999.198 ± 0.12 | 1500 ± 1.2
298.15 K, m1 = 0.057 | 999.564 ± 0.12 | 1500.5 ± 1.2
298.15 K, m1 = 0.0657 | 999.952 ± 0.12 | 1501 ± 1.2
298.15 K, m1 = 0.0804 | 1000.6 ± 0.12 | 1501.9 ± 1.2
298.15 K, m1 = 0.0942 | 1001.2 ± 0.12 | 1502.7 ± 1.2
298.15 K, m1 = 0.1156 | 1002.14 ± 0.12 | 1504 ± 1.2
298.15 K, m1 = 0.1329 | 1002.89 ± 0.12 | 1505.1 ± 1.2
298.15 K, m1 = 0.1535 | 1003.79 ± 0.12 | 1506.4 ± 1.2
298.15 K, m1 = 0.1642 | 1004.26 ± 0.12 | 1507 ± 1.2
298.15 K, m1 = 0.1789 | 1004.89 ± 0.12 | 1507.9 ± 1.2
298.15 K, m1 = 0.1944 | 1005.57 ± 0.12 | 1508.8 ± 1.2
303.15 K, m1 = 0.0192 | 996.495 ± 0.12 | 1510.5 ± 1.2
303.15 K, m1 = 0.028 | 996.883 ± 0.12 | 1511.1 ± 1.2
303.15 K, m1 = 0.037 | 997.277 ± 0.12 | 1511.5 ± 1.2
303.15 K, m1 = 0.043 | 997.539 ± 0.12 | 1511.9 ± 1.2
303.15 K, m1 = 0.0486 | 997.781 ± 0.12 | 1512.3 ± 1.2
303.15 K, m1 = 0.057 | 998.143 ± 0.12 | 1512.8 ± 1.2
303.15 K, m1 = 0.0657 | 998.53 ± 0.12 | 1513.2 ± 1.2
303.15 K, m1 = 0.0804 | 999.17 ± 0.12 | 1514.1 ± 1.2
303.15 K, m1 = 0.0942 | 999.763 ± 0.12 | 1514.9 ± 1.2
303.15 K, m1 = 0.1156 | 1000.7 ± 0.12 | 1516.2 ± 1.2
303.15 K, m1 = 0.1329 | 1001.45 ± 0.12 | 1517.2 ± 1.2
303.15 K, m1 = 0.1535 | 1002.34 ± 0.12 | 1518.5 ± 1.2
303.15 K, m1 = 0.1642 | 1002.8 ± 0.12 | 1519.1 ± 1.2
303.15 K, m1 = 0.1789 | 1003.43 ± 0.12 | 1520 ± 1.2
303.15 K, m1 = 0.1944 | 1004.1 ± 0.12 | 1520.8 ± 1.2
308.15 K, m1 = 0.0192 | 994.871 ± 0.12 | 1521.2 ± 1.2
308.15 K, m1 = 0.028 | 995.258 ± 0.12 | 1521.7 ± 1.2
308.15 K, m1 = 0.037 | 995.648 ± 0.12 | 1522.1 ± 1.2
308.15 K, m1 = 0.043 | 995.908 ± 0.12 | 1522.5 ± 1.2
308.15 K, m1 = 0.0486 | 996.152 ± 0.12 | 1522.9 ± 1.2
308.15 K, m1 = 0.057 | 996.512 ± 0.12 | 1523.4 ± 1.2
308.15 K, m1 = 0.0657 | 996.896 ± 0.12 | 1523.8 ± 1.2
308.15 K, m1 = 0.0804 | 997.529 ± 0.12 | 1524.7 ± 1.2
308.15 K, m1 = 0.0942 | 998.119 ± 0.12 | 1525.5 ± 1.2
308.15 K, m1 = 0.1156 | 999.047 ± 0.12 | 1526.7 ± 1.2
308.15 K, m1 = 0.1329 | 999.793 ± 0.12 | 1527.7 ± 1.2
308.15 K, m1 = 0.1535 | 1000.68 ± 0.12 | 1528.9 ± 1.2
308.15 K, m1 = 0.1642 | 1001.14 ± 0.12 | 1529.5 ± 1.2
308.15 K, m1 = 0.1789 | 1001.76 ± 0.12 | 1530.3 ± 1.2
308.15 K, m1 = 0.1944 | 1002.43 ± 0.12 | 1531.2 ± 1.2
313.15 K, m1 = 0.0192 | 993.05 ± 0.12 | 1530.3 ± 1.2
313.15 K, m1 = 0.028 | 993.434 ± 0.12 | 1530.8 ± 1.2
313.15 K, m1 = 0.037 | 993.821 ± 0.12 | 1531.2 ± 1.2
313.15 K, m1 = 0.043 | 994.079 ± 0.12 | 1531.6 ± 1.2
313.15 K, m1 = 0.0486 | 994.322 ± 0.12 | 1532 ± 1.2
313.15 K, m1 = 0.057 | 994.68 ± 0.12 | 1532.4 ± 1.2
313.15 K, m1 = 0.0657 | 995.061 ± 0.12 | 1532.8 ± 1.2
313.15 K, m1 = 0.0804 | 995.691 ± 0.12 | 1533.7 ± 1.2
313.15 K, m1 = 0.0942 | 996.279 ± 0.12 | 1534.4 ± 1.2
313.15 K, m1 = 0.1156 | 997.203 ± 0.12 | 1535.7 ± 1.2
313.15 K, m1 = 0.1329 | 997.943 ± 0.12 | 1536.6 ± 1.2
313.15 K, m1 = 0.1535 | 998.827 ± 0.12 | 1537.8 ± 1.2
313.15 K, m1 = 0.1642 | 999.283 ± 0.12 | 1538.4 ± 1.2
313.15 K, m1 = 0.1789 | 999.905 ± 0.12 | 1539.2 ± 1.2
313.15 K, m1 = 0.1944 | 1000.57 ± 0.12 | 1540 ± 1.2
